Reference: ChEMBL document CHEMBL1201862, “PubChem BioAssay data set” (2004)
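How tested: cells in 96-well plates exposed to compound for 48 hours at five concentrations. Abbreviation: GI50, concentration required for 50% inhibition of growth.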 The source made the active and inactive calls. Rule as the data show it: active = GI50 up to about 1.1 µM and inactive = higher.

Legend:
Experiment in all cases: DTP human tumour cell line panel, 48 h
SK-OV-3 = system: SK-OV-3
KM12 = system: KM12
HOP-62 = system: HOP-62
IGROV-1 = system: IGROV-1
HCC 2998 = system: HCC 2998
UACC-62 = system: UACC-62
UACC-257 = system: UACC-257
RPMI-8226 = system: RPMI-8226
K562 = system: K562
SK-MEL-28 = system: SK-MEL-28
NCI-H460 = system: NCI-H460
HCT-15 = system: HCT-15
NCI-H23 = system: NCI-H23
Malme-3M = system: Malme-3M
MCF7 = system: MCF7
SNB-19 = system: SNB-19
CAKI-1 = system: CAKI-1
OVCAR-4 = system: OVCAR-4
EKVX = system: EKVX
NCI-H226 = system: NCI-H226

Row | SMILES | GI50 (SK-OV-3) | GI50 (KM12) | GI50 (HOP-62) | GI50 (IGROV-1) | GI50 (HCC 2998) | GI50 (UACC-62) | GI50 (UACC-257) | GI50 (RPMI-8226) | GI50 (K562) | GI50 (SK-MEL-28) | GI50 (NCI-H460) | GI50 (HCT-15) [µM] | GI50 (NCI-H23) | GI50 (Malme-3M) | GI50 (MCF7) | GI50 (SNB-19) | GI50 (CAKI-1) | GI50 (OVCAR-4) | GI50 (EKVX) | GI50 (NCI-H226)
1 | Cc1cc2nc3c(C)c4ccccc4c(C)n3c2cc1C | 7.06 µM (inactive) | 3.34 µM (inactive) | 2.19 µM (inactive) | 2.05 µM (inactive) | 3.33 µM (inactive) | 4.14 µM (inactive) | 3.36 µM (inactive) | 3.21 µM (inactive) | 5.21 µM (inactive) | 3.27 µM (inactive) | 1.79 µM (inactive) | 1.97 | 2.67 µM (inactive) | 1.98 µM (inactive) | 1.49 µM (inactive) | 4.02 µM (inactive) | 2.94 µM (inactive) | 4.35 µM (inactive) | 5 µM (inactive) | –
2 | O=C1C(=CNC(=S)c2ccccc2)C(=O)c2ccccc21 | 21.7 µM (inactive) | 62.1 µM (inactive) | 91.8 µM (inactive) | 29.4 µM (inactive) | 37 µM (inactive) | 28.8 µM (inactive) | 55.1 µM (inactive) | 25.2 µM (inactive) | 30.1 µM (inactive) | > 100 µM (inactive) | 70.8 µM (inactive) | 32.1 | 51.5 µM (inactive) | – | 35.2 µM (inactive) | 93.8 µM (inactive) | 71.4 µM (inactive) | 38.1 µM (inactive) | 60.8 µM (inactive) | > 100 µM (inactive)
3 | CC[C@]1(c2ccc3c(c2)OCO3)C=[N+]([O-])O[C@H](OC2CCCC2(c2ccccc2)c2ccccc2)[C@@H]1OC(C)=O (some centres undefined) | 3.01 µM (inactive) | 1.77 µM (inactive) | 2.08 µM (inactive) | 1.94 µM (inactive) | 1.85 µM (inactive) | 1.95 µM (inactive) | 2.58 µM (inactive) | – | 2.36 µM (inactive) | 2.12 µM (inactive) | 2.24 µM (inactive) | 2.26 | 2.48 µM (inactive) | – | 2.47 µM (inactive) | 3.22 µM (inactive) | 3.42 µM (inactive) | 2.62 µM (inactive) | 2.42 µM (inactive) | 4.3 µM (inactive)
4 | NC(CCOCCP(=O)(O)CCC1C=CC=CC1)C(=O)O (centres undefined) | > 100 µM (inactive) | > 100 µM (inactive) | – | > 100 µM (inactive) | > 100 µM (inactive) | 43.8 µM (inactive) | > 100 µM (inactive) | > 100 µM (inactive) | > 100 µM (inactive) | > 100 µM (inactive) | > 100 µM (inactive) | > 100 | > 100 µM (inactive) | – | > 100 µM (inactive) | > 100 µM (inactive) | > 100 µM (inactive) | > 100 µM (inactive) | > 100 µM (inactive) | –
5 | O=C(/C=C/CC(O)(c1ccccc1)c1ccccc1)Nc1ccccc1Cl | > 100 µM (inactive) | > 100 µM (inactive) | > 100 µM (inactive) | – | > 100 µM (inactive) | > 100 µM (inactive) | > 100 µM (inactive) | > 100 µM (inactive) | > 100 µM (inactive) | > 100 µM (inactive) | > 100 µM (inactive) | > 100 | > 100 µM (inactive) | 45.3 µM (inactive) | – | > 100 µM (inactive) | > 100 µM (inactive) | > 100 µM (inactive) | > 100 µM (inactive) | > 100 µM (inactive)
6 | NC1C2C=CC(C2)C1C(=O)O (centres undefined) | > 100 µM (inactive) | > 100 µM (inactive) | > 100 µM (inactive) | > 100 µM (inactive) | – | > 100 µM (inactive) | – | > 100 µM (inactive) | > 100 µM (inactive) | > 100 µM (inactive) | – | > 100 | > 100 µM (inactive) | > 100 µM (inactive) | > 100 µM (inactive) | > 100 µM (inactive) | > 100 µM (inactive) | > 100 µM (inactive) | > 100 µM (inactive) | > 100 µM (inactive)
7 | CCCCCCCCCCCCCCCCOCC(COP(=O)([O-])OCC[N+](C)(C)C)OCCCCCCCCCCCCCCCC (centres undefined) | > 100 µM (inactive) | > 100 µM (inactive) | > 100 µM (inactive) | > 100 µM (inactive) | > 100 µM (inactive) | > 100 µM (inactive) | > 100 µM (inactive) | > 100 µM (inactive) | > 100 µM (inactive) | > 100 µM (inactive) | > 100 µM (inactive) | > 100 | > 100 µM (inactive) | > 100 µM (inactive) | – | > 100 µM (inactive) | > 100 µM (inactive) | > 100 µM (inactive) | > 100 µM (inactive) | > 100 µM (inactive)
8 | CC(=O)NC1CC(C(C)(C)NC(C)=O)CC=C1C (centres undefined) | > 100 µM (inactive) | > 100 µM (inactive) | > 100 µM (inactive) | > 100 µM (inactive) | > 100 µM (inactive) | > 100 µM (inactive) | > 100 µM (inactive) | – | > 100 µM (inactive) | > 100 µM (inactive) | > 100 µM (inactive) | > 100 | > 100 µM (inactive) | – | > 100 µM (inactive) | > 100 µM (inactive) | – | > 100 µM (inactive) | > 100 µM (inactive) | –
9 | Nc1nc(N)c2c(CCc3ccc(C(=O)N[C@@H](CCC(=O)O)C(=O)O)cc3)ccnc2n1 | 0.0628 µM (active) | < 0.0283 µM (active) | – | 0.029 µM (active) | < 0.01 µM (active) | < 0.0169 µM (active) | 0.257 µM (active) | < 0.0145 µM (active) | < 0.01 µM (active) | > 88.9 µM (inactive) | < 0.01 µM (active) | < 0.0232 | < 0.0308 µM (active) | – | < 0.01 µM (active) | 0.912 µM (active) | < 0.0116 µM (active) | – | > 100 µM (inactive) | > 100 µM (inactive)
10 | CC(=O)Nc1ccc(C2=N/C(=C\c3ccc(Cl)c(Cl)c3)C(=O)O2)cc1 | > 100 µM (inactive) | > 100 µM (inactive) | > 100 µM (inactive) | > 100 µM (inactive) | > 100 µM (inactive) | > 100 µM (inactive) | > 100 µM (inactive) | > 100 µM (inactive) | > 100 µM (inactive) | > 100 µM (inactive) | > 100 µM (inactive) | > 100 | > 100 µM (inactive) | > 100 µM (inactive) | – | > 100 µM (inactive) | > 100 µM (inactive) | > 100 µM (inactive) | > 100 µM (inactive) | > 100 µM (inactive)
11 | O=C1N[C@@H]([C@H](CCCCCO)OC(=O)c2ccccc2)CO1 | > 100 µM (inactive) | > 100 µM (inactive) | > 100 µM (inactive) | > 100 µM (inactive) | – | > 100 µM (inactive) | > 100 µM (inactive) | > 100 µM (inactive) | > 100 µM (inactive) | > 100 µM (inactive) | > 100 µM (inactive) | > 100 | – | – | > 100 µM (inactive) | > 100 µM (inactive) | > 100 µM (inactive) | > 100 µM (inactive) | > 100 µM (inactive) | > 100 µM (inactive)
12 | CC12Nc3ccccc3N1C(=O)c1ccccc12 (centres undefined) | > 100 µM (inactive) | > 100 µM (inactive) | > 100 µM (inactive) | > 100 µM (inactive) | > 100 µM (inactive) | > 100 µM (inactive) | > 100 µM (inactive) | > 100 µM (inactive) | > 100 µM (inactive) | > 100 µM (inactive) | > 100 µM (inactive) | > 100 | > 100 µM (inactive) | – | > 100 µM (inactive) | > 100 µM (inactive) | > 100 µM (inactive) | > 100 µM (inactive) | > 100 µM (inactive) | > 100 µM (inactive)
13 | CC1(C)CC(=O)C2=C(C1)NC1=C(C(=O)CC(C)(C)C1)C2c1ccc([N+](=O)[O-])cc1 | > 100 µM (inactive) | > 100 µM (inactive) | > 100 µM (inactive) | > 100 µM (inactive) | > 100 µM (inactive) | > 100 µM (inactive) | > 100 µM (inactive) | > 100 µM (inactive) | > 100 µM (inactive) | > 100 µM (inactive) | > 100 µM (inactive) | > 100 | > 100 µM (inactive) | – | > 100 µM (inactive) | > 100 µM (inactive) | > 100 µM (inactive) | > 100 µM (inactive) | > 100 µM (inactive) | > 100 µM (inactive)
14 | O=C(Nc1ccc(F)cc1)c1cc2ccc(O)cc2o/c1=N\c1ccccc1F | 12 µM (inactive) | 26.2 µM (inactive) | 11.5 µM (inactive) | 10.1 µM (inactive) | 33.7 µM (inactive) | 22.6 µM (inactive) | 27.6 µM (inactive) | 8.04 µM (inactive) | 11.1 µM (inactive) | 32.1 µM (inactive) | 18.8 µM (inactive) | 18.9 | 1.62 µM (inactive) | 50 µM (inactive) | 28.8 µM (inactive) | – | 33.5 µM (inactive) | 21.3 µM (inactive) | 13.5 µM (inactive) | –
15 | C=C1CC(OC)(C(O)C(=O)N[C@H]2OCO[C@H]3C2O[C@H](C[C@@H](CO)OC)C(C)(C)C3OC)O[C@H](C)[C@@H]1C (some centres undefined) | < 0.00931 µM (active) | < 0.00931 µM (active) | < 0.00931 µM (active) | < 0.00931 µM (active) | – | < 0.00931 µM (active) | < 0.00931 µM (active) | < 0.00931 µM (active) | < 0.00931 µM (active) | < 0.00931 µM (active) | < 0.00931 µM (active) | < 0.00931 | < 0.00931 µM (active) | – | < 0.00931 µM (active) | < 0.00931 µM (active) | < 0.00931 µM (active) | < 0.00931 µM (active) | – | < 0.00931 µM (active)
